{
  "source": "paper PMC11878239",
  "about": "“Biochemical investigations using mass spectrometry to monitor JMJD6-catalysed hydroxylation of multi-lysine containing bromodomain-derived substrates” (RSC Chemical Biology, 2025)",
  "key": {"KDM4C": {"tested_on": "KDM4C", "conditions": "KDM4C (3 μM), H3_1–15K9me3 as substrate, oxygen consumption assay, cited from earlier work"}, "AspH [1]": {"tested_on": "AspH", "conditions": "AspH (0.1 μM), hFX-CP101–119 as substrate, cited from earlier work"}, "AspH [2]": {"tested_on": "AspH", "conditions": "AspH versus JMJD6"}, "PHD2 [3]": {"tested_on": "PHD2", "conditions": "PHD2 (4 μM), cited from earlier work; for k cat: O2"}, "[4]": {"tested_on": "phytanoyl-CoA dioxygenase (PHYH)", "conditions": "PHYH (50 μM), isovaleryl-CoA as substrate, oxygen consumption assay, cited from earlier work"}, "KDM4A [5]": {"tested_on": "KDM4A", "conditions": "KDM4A (1 μM), H3_1–15K9me3 as substrate; cited from earlier work"}, "full-length His6-JMJD6 [6]": {"target": "T1, full-length His6-JMJD6 (Homo sapiens, UniProt Q6NYC1)", "T1 construct": "An enzyme mixture (10 μL) containing full-length His6-JMJD6 (5 μM; final concentration: 0.05 μM); made in house; host or cells: Escherichia coli BL21 (DE3), pET-28a(+) plasmid", "assay": "SPE-MS kinetics of JMJD6 for O2", "format": "biochemical", "protocol": "(§1) Recombinant human JMJD6 (full length with a N-terminal His6-tag) was produced in Escherichia coli BL21 (DE3) cells using a pET-28a(+) plasmid and purified by standard Ni(II)-affinity size-exclusion chromatography, as previously reported.[40] […] Purified JMJD6 was stored at −78 °C; fresh aliquots were used for all JMJD6 assays.\nAssays to determine the kinetic parameters of JMJD6 for O2 were performed in 2 mL gas-tight glass vials (Sigma-Aldrich) in independent triplicates. 50 mM Tris buffer (pH 7.5; 0.95 mL) was incubated in a 2 mL gas-tight glass vial at 37 °C for 30 min with a fixed O2 concentration (in N2; specified in Fig S9, ESI ^†), adjusted using a mass flow controller. […] The JMJD6-catalysed reaction was performed at 37 °C at a fixed O2 concentration and was stopped after the reaction time specified (Fig. S9, ESI ^†) by the addition of 20%v/v aqueous formic acid (100 μL) and analysed by SPE-MS. The %-concentration of O2 in N2, adjusted with a mass flow controller, was converted into an O2 concentration [μM] by calibration using a standard (i.e., y[μM] = 9.026·x[%]).[100] Data were analysed by SPE-MS as described above to calculate apparent JMJD6 kinetic parameters for O2."}, "KDM4E": {"tested_on": "KDM4E", "conditions": "KDM4E (2.1 μM), H3_1–15K9me3 as substrate, oxygen consumption assay, cited from earlier work"}, "KDM4A [7]": {"tested_on": "KDM4A", "conditions": "KDM4A versus JMJD6"}, "FIH": {"tested_on": "FIH", "conditions": "FIH (5 μM), HIF-1α789–822 as substrate, cited from earlier work"}, "[8]": {"tested_on": "type I human collagen prolyl 4-hydroxylase (CP4H-I)", "conditions": "(Pro-Pro-Gly)10 as substrate, [14C]CO2 release; cited from earlier work"}, "PHD2 [9]": {"tested_on": "PHD2", "conditions": "PHD2 versus JMJD6"}, "BBOX": {"tested_on": "BBOX", "parameters": "method as in PMID 25030770, PMID 24317009", "conditions": "BBOX (0.05 μM); 1H NMR turnover assay; cited from earlier work"}, "JMJD5": {"tested_on": "JMJD5", "parameters": "method as in PMID 37292060", "conditions": "SPE-MS, cited from earlier work"}, "NO66_183–641": {"tested_on": "NO66_183–641", "parameters": "method as in PMID 34843649", "conditions": "NO66_183–641 (0.3 μM), RPL8_205–224 as substrate; SPE-MS; 2OG or Fe(II); cited from earlier work"}, "AspH315–758": {"tested_on": "AspH315–758", "parameters": "method as in PMID 32107312", "conditions": "AspH315–758 (0.1 μM), hFX-CP101–119 as substrate; SPE-MS; 2OG or Fe(II); cited from earlier work"}, "full-length His6-JMJD6 [10]": {"target": "T1, full-length His6-JMJD6", "assay": "SPE-MS kinetics of JMJD6-catalysed lysyl hydroxylation (2OG, Fe(II), LAA, BRD-derived peptides)", "format": "biochemical", "conditions": "2OG or Fe(II) varied, BRD4_511–550 (2 μM) as substrate, 0.05 μM full-length His6-JMJD6, ambient temperature", "protocol": "as §1\nPeptides were used as 10 mM stock solutions in DMSO (Sigma-Aldrich; BioUltra grade).\nAssay samples were aspirated under vacuum for 0.4 s, then loaded onto a C4 solid phase extraction (SPE) cartridge. After loading, the C4 SPE cartridge was washed with 0.1%v/v aqueous formic acid to remove non-volatile buffer salts (5 s, 1.5 mL min^−1). The peptide was eluted from the SPE cartridge with 0.1%v/v aqueous formic acid in 75/25v/v acetonitrile/water into the mass spectrometer (5 s, 1.6 mL min^−1) and the SPE cartridge re-equilibrated with 0.1%v/v aqueous formic acid (1 s, 1.25 mL min^−1).\nPeaks corresponding to the m/z +5 charge states of the BRD-derived substrate peptide and the hydroxylated product peptides were extracted from the ion chromatogram and integrated using RapidFire Integrator 4.3.0 (Agilent). Peak area data were exported into Microsoft Excel and used to calculate the relative abundance of the mono-hydroxylated product peptide using the following equation: […]\nThe concentration of the mono-hydroxylated product peptide was calculated by multiplying the %-fraction of the mono-hydroxylated product peptide by the initial concentration of the substrate peptide employed in the assay. Initial reaction velocities were then calculated and fitted to a Michaelis–Menten plot using nonlinear regression (GraphPad Prism 5)."}, "PHD2 [11]": {"tested_on": "PHD2", "parameters": "method as in PMID 18952043", "conditions": "PHD2 (1.0 nM), HIF-1α-derived biotin-DLEMLAPYIPMDDDFQL as substrate; FRET assay; 2OG or Fe(II); cited from earlier work"}, "[12]": {"conditions": "LAA 100 μM, 50 mM Tris pH 7.5, ~20 min, SPE-MS, mean ± SD n = 3"}},
  "note": "Where “and” joins values, the source holds several entries; their conditions need not be identical. Equal entries are not always repeated. Where two headings read alike, the source gives them in different places.",
  "data": [
    {"compound": "O=O", "note": "[O2, dioxygen]", "values": [
      {"measurement": "K m for O2", "setting": "KDM4C", "value": "158 ± 13", "unit": "µM"},
      {"measurement": "k cat", "setting": "KDM4C; O2", "value": "0.043 ± 0.001", "unit": "s⁻¹"},
      {"measurement": "K m for O2", "setting": "AspH [1]", "value": "426 ± 73", "unit": "µM"},
      {"measurement": "k cat", "setting": "AspH [1]; O2", "value": "0.23 ± 0.04", "unit": "s⁻¹"},
      {"measurement": "K^app m (O2): fold greater than that of JMJD6", "setting": "AspH [2]", "value": "~6", "unit": "fold"},
      {"measurement": "k cat", "setting": "PHD2 [3]; HIF-1α395–413 as substrate", "value": "0.028 ± 0.001", "unit": "s⁻¹"},
      {"measurement": "k cat", "setting": "PHD2 [3]; HIF-1α556–574 as substrate", "value": "0.06 ± 0.01", "unit": "s⁻¹"},
      {"measurement": "K m for O2", "setting": "PHD2 [3]; HIF-1α395–413 as substrate", "value": ">450", "unit": "µM"},
      {"measurement": "K m for O2", "setting": "PHD2 [3]; HIF-1α556–574 as substrate", "value": "460 ± 30", "unit": "µM"},
      {"measurement": "k cat", "setting": "[4]; O2", "value": 0.016, "unit": "s⁻¹"},
      {"measurement": "K m for O2", "setting": "[4]", "value": "93 ± 43", "unit": "µM"},
      {"measurement": "K m for O2", "setting": "KDM4A [5]", "value": "173 ± 23", "unit": "µM"},
      {"measurement": "K^app m (O2) of JMJD6: fold greater than CP4H-I", "setting": "full-length His6-JMJD6 [6]; JMJD6/BRD4_511–550 versus CP4H-I (ref 26)", "value": "~2", "unit": "fold"},
      {"measurement": "K^app m (O2) of JMJD6: fold greater than KDM6B", "setting": "full-length His6-JMJD6 [6]; JMJD6/BRD4_511–550 versus KDM6B (ref 96)", "value": "~4", "unit": "fold"},
      {"measurement": "apparent Michaelis constant K^app m for O2", "setting": "full-length His6-JMJD6 [6]; O2 varied, BRD4_511–550 (2 μM) as substrate, 0.05 μM full-length His6-JMJD6, 50 mM Tris pH 7.5, 37 °C, quenched after 60 or 90 s, SPE-MS, mean ± SD n = 3", "value": "69.8 ± 11.4 µM and 74 ± 14 µM"},
      {"measurement": "apparent turnover number k^app cat", "setting": "full-length His6-JMJD6 [6]; O2 varied, BRD4_511–550 (2 μM) as substrate, 0.05 μM full-length His6-JMJD6, 50 mM Tris pH 7.5, 37 °C, quenched after 60 or 90 s, mean ± SD n = 3", "value": "0.12 ± 0.01", "unit": "s⁻¹"},
      {"measurement": "specificity constant kcat/Km", "setting": "full-length His6-JMJD6 [6]; O2 varied, BRD4_511–550 (2 μM) as substrate, 0.05 μM full-length His6-JMJD6, pH 7.5, 37 °C, n = 3", "value": "1700 ± 400", "unit": "M⁻¹ s⁻¹"},
      {"measurement": "K m for O2", "setting": "KDM4E", "value": "197 ± 16", "unit": "µM"},
      {"measurement": "k cat", "setting": "KDM4E; O2", "value": "0.067 ± 0.001", "unit": "s⁻¹"},
      {"measurement": "K^app m (O2): fold greater than that of JMJD6", "setting": "KDM4A [7]", "value": "~2", "unit": "fold"},
      {"measurement": "K m for O2", "setting": "FIH", "value": "110 ± 30", "unit": "µM"},
      {"measurement": "k cat", "setting": "FIH; O2", "value": "0.56 ± 0.04", "unit": "s⁻¹"},
      {"measurement": "K m for O2", "setting": "[8]", "value": "~40", "unit": "µM"},
      {"measurement": "K^app m (O2): fold greater than that of JMJD6", "setting": "PHD2 [9]", "value": "~6", "unit": "fold"}
    ]},
    {"compound": "C[N+](C)(C)CCCC(=O)[O-]", "note": "[γ-butyrobetaine]", "values": [
      {"measurement": "K m (substrate)", "setting": "BBOX", "value": 4.2, "unit": "µM"},
      {"measurement": "k cat (substrate)", "setting": "BBOX", "value": 0.83, "unit": "s⁻¹"}
    ]},
    {"compound": "RSP6_128–148: JMJD5 substrate", "values": [
      {"measurement": "k cat/Km (substrate)", "setting": "JMJD5", "value": "11500 ± 6300", "unit": "M⁻¹ s⁻¹"}
    ]},
    {"compound": "ammonium iron(II) sulfate hexahydrate [Fe(II)]", "values": [
      {"measurement": "K^app m", "setting": "NO66_183–641", "value": "0.014 ± 0.001", "unit": "µM"},
      {"measurement": "K^app m", "setting": "AspH315–758", "value": "1.42 ± 0.16", "unit": "µM"},
      {"measurement": "k cat/Km", "setting": "AspH315–758", "value": "130000 ± 30000", "unit": "M⁻¹ s⁻¹"},
      {"measurement": "k^app cat", "setting": "AspH315–758", "value": "0.19 ± 0.03", "unit": "s⁻¹"},
      {"measurement": "apparent Michaelis constant K^app m", "setting": "full-length His6-JMJD6 [10]; [12]", "value": "0.19 ± 0.02", "unit": "µM"},
      {"measurement": "apparent maximum velocity v^app max", "setting": "full-length His6-JMJD6 [10]; [12]", "value": "3.6 ± 0.1", "unit": "nM/s"},
      {"measurement": "apparent turnover number k^app cat", "setting": "full-length His6-JMJD6 [10]; pH 7.5, calculated from v^app max assuming active JMJD6 = total enzyme, n = 3", "value": "0.072 ± 0.002", "unit": "s⁻¹"},
      {"measurement": "specificity constant kcat/Km", "setting": "full-length His6-JMJD6 [10]; pH 7.5, n = 3", "value": "380000 ± 50000", "unit": "M⁻¹ s⁻¹"},
      {"measurement": "K^app m", "setting": "PHD2 [11]", "value": "0.89 ± 0.07", "unit": "µM"},
      {"measurement": "k cat/Km", "setting": "JMJD5; RSP6_128–148 as substrate, 2OG or Fe(II)", "value": "38500 ± 6200", "unit": "M⁻¹ s⁻¹"}
    ]}
  ]
}
